According to article PMC7070709, “Design, Synthesis, and In Vitro Evaluation of Hydroxybenzimidazole-Donepezil Analogues as Multitarget-Directed Ligands for the Treatment of Alzheimer’s Disease” (Molecules, 2020):

Tests used:
Aβ1–42 with Cu(II) [1] = biological target: T1, Aβ1–42 with Cu(II) (Homo sapiens, UniProt P05067); assay: Inhibition of Cu-induced Aβ1–42 aggregation (thioflavin T fluorescence); format: biochemical
Method: The anti-amyloidogenic capacity of the compounds was also evaluated in vitro, in the absence and presence of Cu(II), based on the measurement of the fluorescence emission of Thioflavin T (ThT), a stain known by its Aβ fibril binding capacity. This binding interaction can be analyzed by fluorimetry, since the presence of ThT-fibrils increases the absorbance and the emission of the ThT dye, and it also induces red shifts on the absorbance (from 385 to 446 nm) and emission peaks (from 445 to 485 nm). All the measurements were performed after incubation (24 h, 37 °C) of the self-mediated and Cu^2+-induced Aβ aggregates in the presence/absence of the compounds under evaluation.
Herein, due to solubility problems of some compounds in the phosphate buffer (0.215 M, pH 8.0) of the working medium, the assays were carried out in the presence of 40 μM concentration of inhibitor and 20 μM in the case of compound 4, instead of 80 μM as previously reported. […] The activity dependence on ligand structural features may be mainly explained by the different ability for intercalation into the fibrils, as already assumed for other inhibitors. […] The data obtained for compounds 6 and 7 indicate that the presence of R1 = F, -NO2 substituents in the BIM have some small positive effect on the inhibition of Aβ aggregation.
The Aβ peptide was treated with 1,1,1,3,3,3-hexafluoropropan-2-ol (HFIP) and dissolved in a CH3CN/Na2CO3 (300 μM)/NaOH (250 μM) (48.3:48.3:4.3, v/v/v) mixture in order to have a stable stock solution, avoiding self-aggregation of Aβ1–42. Then, the prepared 500 μM solution was diluted at 40 μM in phosphate buffer (0.215 M, pH 8.0).
The solutions of the tested compounds were prepared in MeOH (1 mg/mL), being further diluted in phosphate buffer to a concentration of 480 μM. For copper-induced aggregation studies, a solution of CuCl2 240 μM was prepared from a stock standard solution (0.015 M). To perform the assays for the Aβ1–42 aggregation inhibition, a reported method, based on the fluorescence emission of thioflavin T (ThT), was followed. Aβ1–42 (40 μM) was incubated at 37 °C, for 24 h with or without Cu(II) (40 μM) in a phosphate buffer in presence or absence of the single ligand (40 μM and 20 μM for compound 4). Then, the samples were added to a 96-well plate with […] of 5 μM ThT in 50 mM glycine-NaOH (pH 8.5) buffer. Blank samples were prepared without the peptide for each concentration. The ThT fluorescence was measured at 446 nm (excitation) and 485 nm (emission). The inhibition percentage of aggregation was calculated by Equation (2), in which IFi and IF0 corresponded to the fluorescence intensities, in the presence and in the absence of the tested compound, subtracted of the fluorescence intensities due to the respective blanks.
The reported values were obtained as the mean ± SEM of duplicate of three different experiments.

[2] = Cu(II) chelation by potentiometry; format: physicochemical; conditions: pH 7.4; read-out: conditional dissociation constant (K´d) for the copper complex
Text: The metal chelating ability of hybrids 7 and 12, due to the BIM bidentate unity with (N,O) coordination mode, was studied by potentiometry. Figure 3A,B show a change in the deprotonation profile of the ligand titration curves due to the presence of the metal ions. In fact, the curves for the Cu(II)/L systems lie well below that of the ligand, while for the Zn(II)/L systems stay under for a > −1 (compound 7) or a > 0 (compound 12), thus supporting the formation of 1:1 and 1:2 M/L ratio complexes with the deprotonated and mono-protonated forms of the ligand and with relative metal dependent stability order (Cu > Zn). Table 1 contains the equilibrium models obtained from the fitting analysis of the potentiometric curves by program Hyperquad. In these equilibrium models, which the coordination core of the compounds integrates the bidentate (N,O) BIM moiety, MHL and MH2L2 correspond to species with the ligand containing one protonated nitrogen atom at the piperazine moiety, ML and ML2 correspond to complexes involving the completely deprotonated form of the ligand while MH-1L2 are mixed ligand-hydroxo metal complexes.
Solutions: the aqueous copper (CuCl2, 0.015 M) and zinc (ZnCl2, 0.0156 M) stock solutions for potentiometric equilibrium studies were prepared from 1000 ppm standards (Titrisol) and their metal content was evaluated by atomic absorption. The titrant solution (0.1 M KOH) was obtained from a carbonate-free commercial concentrate (Titrisol) and standardized by potentiometric titration with potassium hydrogen phthalate. The titrant solution was discarded whenever the percentage of carbonate (Gran’s method) was about 0.5% of the total amount of base.
Measurements: compounds 7 and 12 were titrated in 50% (w/w) DMSO/H2O medium, at T = 25.0 ± 0.1 °C and ionic strength (I) 0.1 M KCl, using 0.1 M KOH as titrant. Both glass and Ag/AgCl reference electrodes were previously conditioned in DMSO/H2O mixtures with increasing amounts of DMSO and the response of the glass electrode was controlled by strong acid–strong base (HCl/KOH) calibrations with the determination of the Nernst parameters by Gran’s method. […] All titrations were performed in duplicate and under the stated experimental conditions the pKw value (13.6) was determined and subsequently used in the computations. The stepwise protonation constant of the ligand, Ki = [HiL]/([Hi–1L][H]), and the overall metal–complex stability constants, βMmHhLl = [MmHhLl]/([M]^m[H]^h[L]^l), were calculated by fitting the potentiometric titration data with Hyperquad 2008 [26]. The metal hydrolysis constants were determined under the defined experimental conditions (I = 0.1 M KCl, 50% w/w DMSO/H2O, T = 25.0 ± 0.1 °C) and the following values of stability constants were included in the fitting of experimental data towards the equilibrium models related to the Cu^2+/L and Zn^2+/L systems: log βCu2H−2 = −9.99; log βZnH−2 = −14.79, log βZnH−3 = −23.48. Species distribution curves were plotted with the Hyss program.

[3] = biological target: T2, AChE (type VI-S, from electric eel) (Electrophorus electricus, UniProt O42275); conditions: read-out: TcAChE Inhibition IC50; cited from earlier work
T2 construct: purchased type VI-S

Aβ1–42 = biological target: T3, Aβ1–42 (Homo sapiens, UniProt P05067); parameters: method as in PMID 32171933; conditions: footnote e; cited from earlier work
T3 construct: Aβ1–42 (40 μM) was incubated at 37 °C, for 24 h with or without Cu(II) (40 μM)

Aβ1–42 with Cu(II) [4] = biological target: T1, Aβ1–42 with Cu(II); parameters: method as in PMID 32171933; conditions: copper 40 µM; footnote e; cited from earlier work
[5] = 50% w/w DMSO/water, I = 0.1 M KCl, 25.0 °C; cited from earlier work
[6] = pH 7.4, CL/CM = 10, CM = 10^−6 M; cited from earlier work
[7] = pH 7.4, CL/CM = 10, CM = 10^−6 M; cited from earlier work; remark: listed apart in the source

T1 sequence (P05067 672-713): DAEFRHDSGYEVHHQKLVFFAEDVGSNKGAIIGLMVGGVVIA
T3 sequence (P05067 672-713): as above
T2 sequence (O42275 24-633): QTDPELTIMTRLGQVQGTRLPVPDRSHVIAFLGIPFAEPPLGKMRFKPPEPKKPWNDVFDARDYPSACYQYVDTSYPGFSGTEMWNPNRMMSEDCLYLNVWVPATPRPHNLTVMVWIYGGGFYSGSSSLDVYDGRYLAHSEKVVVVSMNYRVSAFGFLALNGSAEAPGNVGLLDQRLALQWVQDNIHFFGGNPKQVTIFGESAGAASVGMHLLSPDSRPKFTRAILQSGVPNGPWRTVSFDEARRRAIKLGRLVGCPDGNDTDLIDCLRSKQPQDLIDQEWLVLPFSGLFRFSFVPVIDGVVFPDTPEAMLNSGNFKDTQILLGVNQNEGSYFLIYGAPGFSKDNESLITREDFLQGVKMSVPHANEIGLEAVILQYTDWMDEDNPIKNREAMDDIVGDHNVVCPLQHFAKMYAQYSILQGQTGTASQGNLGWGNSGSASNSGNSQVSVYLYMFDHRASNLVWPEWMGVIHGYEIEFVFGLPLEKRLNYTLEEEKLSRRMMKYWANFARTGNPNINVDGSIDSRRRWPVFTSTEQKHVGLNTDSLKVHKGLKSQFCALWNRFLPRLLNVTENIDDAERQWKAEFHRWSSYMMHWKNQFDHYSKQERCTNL

O=C(NCC1CCN(Cc2ccccc2)CC1)c1cccc2[nH]c(-c3ccccc3O)nc12 [Compound 5]
increase on Cu-induced Aβ aggregation (inhibition) relative to the self-induced one (Aβ1–42 with Cu(II) [1]): more than 50%
Kd [2]: 0.000254 µM
IC50 [3]: 9 ± 1 µM
Aβ1–42 Aggregation Inhibition, Self-Induced (Aβ1–42): 38.6 ^e %
Aβ1–42 Aggregation Inhibition, Cu-Induced (Aβ1–42 with Cu(II) [4]): 58.9 ^e %
log K1, stepwise protonation constant (011) [5]: 8.98(2)
log K2, stepwise protonation constant (021) [5]: 7.78(4)
log K3, stepwise protonation constant (031) [5]: 2.86(5)
pCu (pM = −log[M]) [6]: 14.3
pZn (pM = −log[M]) [7]: 6.4
